Data from patent US10807992B2, “Single enantiomer antiparasitic compounds” (priority 2017, dated 2020).

System: Ctenocephalides felis
Experiment: In vitro contact activity against fleas (coated substrate)
Conditions: for mortality at 0.006 ppm: Trial 3, dose 0.006 ppm; for mortality at 0.024 ppm: Trial 3, dose 0.024 ppm; for mortality at 0.098 ppm: Trial 3, dose 0.098 ppm; for mortality at 0.39 ppm: Trial 3, dose 0.39 ppm; for mortality at 1.56 ppm: Trial 3, dose 1.56 ppm; for mortality at 6.25 ppm: Trial 3, dose 6.25 ppm; for mortality at 25 ppm: Trial 3, dose 25 ppm; for mortality at 100 ppm: Trial 3, dose 100 ppm
Description: Ctenocephalides felis (Avista Pharma, Inc., RTP, NC), 1-7days post hatch, held in an environmental chamber at 24° C., 85% humidity.
For flea contact tests, vial caps were pre-drilled with a single hole in the center of each cap to allow air exchange. A filter paper (Whatman Grade 540 2.1 cm) was placed in the lid of each vial. Pipe cleaners cut to 0.5 inches were inserted in each test vial. An aliquot was taken from each compound stock and added to an acetone/triton solution to achieve the desired top concentrations for the study. Serial dilutions were conducted from the top dose (i.e. 100 ppm) to achieve the desired concentration for EC50 and EC90 determination. The final DMSO concentration was 0.5%. A 75 μL aliquot of each compound formulation was added to each 0.5 inch pipe cleaner contained in the treatment vial. The vials were loosely capped and allowed to dry for a minimum of four hours in a chemical fume hood.
Compounds tested were C1 racemate, the C1 (R) enantiomer, and the C1 (S) enantiomer. For Trial 3, the C1 (R) enantiomer and the C1 (S) enantiomer were further chiral purified to achieve >99% purity.
For both contact and ingestion assays, ten newly emerged unfed adult fleas, 0-7 days old Ctenocephalides felis, from a laboratory colony, were aspirated into each vial or cage. The test vials for contact assays were held in an environmental chamber at 24° C., 80% humidity with light/dark cycles (12 hours each). The cages for flea ingestion assays were held in a temperature-controlled artificial feeding apparatus to allow continual access to organic bovine blood containing the desired concentration of compound. Fresh aliquots of compound-spiked bovine blood were provided daily for the duration of the study.
Fleas were evaluated for percent mortality at various time points between 2 hours and 48 hours post infestation. Fleas showing normal movement and/or jumping ability were considered viable and those showing no movement after tapping the vials were scored as dead.

## O=C(CC(F)(F)F)N1CC2(C1)OCc1cc(C3=NSC(c4cc(Cl)c(F)c(Cl)c4)(C(F)(F)F)C3)ccc12 (racemic) [C1 racemate, 1-[6-[5-(3,5-dichloro-4-fluoro-phenyl)-5-(trifluoromethyl)-4H-isothiazol-3-yl]spiro[1H-isobenzofuran-3,3′-azetidine]-1′-yl]-3,3,3-trifluoro-propan-1-one]
6 h, Rep1
  mortality at 0.006 ppm: 0%
  mortality at 0.024 ppm: 0%
  mortality at 0.098 ppm: 0%
  mortality at 0.39 ppm: 0%
  mortality at 1.56 ppm: 0%
  mortality at 6.25 ppm: 0%
  mortality at 25 ppm: 0%
  mortality at 100 ppm: 0%
6 h, Rep2
  mortality at 0.006 ppm: 0%
  mortality at 0.024 ppm: 0%
  mortality at 0.098 ppm: 0%
  mortality at 0.39 ppm: 0%
  mortality at 1.56 ppm: 0%
  mortality at 6.25 ppm: 0%
  mortality at 25 ppm: 0%
  mortality at 100 ppm: 0%
24 h, Rep1
  mortality at 0.006 ppm: 0%
  mortality at 0.024 ppm: 0%
  mortality at 0.098 ppm: 0%
  mortality at 0.39 ppm: 0%
  mortality at 1.56 ppm: 0%
  mortality at 6.25 ppm: 0%
  mortality at 25 ppm: 0%
  mortality at 100 ppm: 70%
24 h, Rep2
  mortality at 0.006 ppm: 0%
  mortality at 0.024 ppm: 0%
  mortality at 0.098 ppm: 0%
  mortality at 0.39 ppm: 0%
  mortality at 1.56 ppm: 0%
  mortality at 6.25 ppm: 0%
  mortality at 25 ppm: 0%
  mortality at 100 ppm: 40%
48 h, Rep1
  mortality at 0.006 ppm: 0%
  mortality at 0.024 ppm: 0%
  mortality at 0.098 ppm: 0%
  mortality at 0.39 ppm: 0%
  mortality at 1.56 ppm: 0%
  mortality at 6.25 ppm: 0%
  mortality at 25 ppm: 80%
  mortality at 100 ppm: 100%
48 h, Rep2
  mortality at 0.006 ppm: 0%
  mortality at 0.024 ppm: 0%
  mortality at 0.098 ppm: 0%
  mortality at 0.39 ppm: 0%
  mortality at 1.56 ppm: 0%
  mortality at 6.25 ppm: 0%
  mortality at 25 ppm: 70%
  mortality at 100 ppm: 100%

## O=C(CC(F)(F)F)N1CC2(C1)OCc1cc(C3=NS[C@](c4cc(Cl)c(F)c(Cl)c4)(C(F)(F)F)C3)ccc12 [C1 (R) enantiomer, (R)-1-[6-[5-(3,5-dichloro-4-fluoro-phenyl)-5-(trifluoromethyl)-4H-isothiazol-3-yl]spiro[1H-isobenzofuran-3,3′-azetidine]-1′-yl]-3,3,3-trifluoro-propan-1-one]
6 h, Rep1
  mortality at 0.006 ppm: 0%
  mortality at 0.024 ppm: 0%
  mortality at 0.098 ppm: 0%
  mortality at 0.39 ppm: 0%
  mortality at 1.56 ppm: 0%
  mortality at 6.25 ppm: 0%
  mortality at 25 ppm: 0%
  mortality at 100 ppm: 0%
6 h, Rep2
  mortality at 0.006 ppm: 0%
  mortality at 0.024 ppm: 0%
  mortality at 0.098 ppm: 0%
  mortality at 0.39 ppm: 0%
  mortality at 1.56 ppm: 0%
  mortality at 6.25 ppm: 0%
  mortality at 25 ppm: 0%
  mortality at 100 ppm: 0%
24 h, Rep1
  mortality at 0.006 ppm: 0%
  mortality at 0.024 ppm: 0%
  mortality at 0.098 ppm: 0%
  mortality at 0.39 ppm: 0%
  mortality at 1.56 ppm: 0%
  mortality at 6.25 ppm: 0%
  mortality at 25 ppm: 0%
  mortality at 100 ppm: 0%
24 h, Rep2
  mortality at 0.006 ppm: 0%
  mortality at 0.024 ppm: 0%
  mortality at 0.098 ppm: 0%
  mortality at 0.39 ppm: 0%
  mortality at 1.56 ppm: 0%
  mortality at 6.25 ppm: 0%
  mortality at 25 ppm: 0%
  mortality at 100 ppm: 0%
48 h, Rep1
  mortality at 0.006 ppm: 0%
  mortality at 0.024 ppm: 0%
  mortality at 0.098 ppm: 0%
  mortality at 0.39 ppm: 0%
  mortality at 1.56 ppm: 0%
  mortality at 6.25 ppm: 0%
  mortality at 25 ppm: 0%
  mortality at 100 ppm: 0%
48 h, Rep2
  mortality at 0.006 ppm: 0%
  mortality at 0.024 ppm: 0%
  mortality at 0.098 ppm: 0%
  mortality at 0.39 ppm: 0%
  mortality at 1.56 ppm: 0%
  mortality at 6.25 ppm: 0%
  mortality at 25 ppm: 0%
  mortality at 100 ppm: 0%

## O=C(CC(F)(F)F)N1CC2(C1)OCc1cc(C3=NS[C@@](c4cc(Cl)c(F)c(Cl)c4)(C(F)(F)F)C3)ccc12 [C1 (S) enantiomer, (S)-1-[6-[5-(3,5-dichloro-4-fluoro-phenyl)-5-(trifluoromethyl)-4H-isothiazol-3-yl]spiro[1H-isobenzofuran-3,3′-azetidine]-1′-yl]-3,3,3-trifluoro-propan-1-one]
6 h, Rep1
  mortality at 0.006 ppm: 0%
  mortality at 0.024 ppm: 0%
  mortality at 0.098 ppm: 0%
  mortality at 0.39 ppm: 0%
  mortality at 1.56 ppm: 0%
  mortality at 6.25 ppm: 0%
  mortality at 25 ppm: 0%
  mortality at 100 ppm: 0%
6 h, Rep2
  mortality at 0.006 ppm: 0%
  mortality at 0.024 ppm: 0%
  mortality at 0.098 ppm: 0%
  mortality at 0.39 ppm: 0%
  mortality at 1.56 ppm: 0%
  mortality at 6.25 ppm: 0%
  mortality at 25 ppm: 0%
  mortality at 100 ppm: 0%
24 h, Rep1
  mortality at 0.006 ppm: 0%
  mortality at 0.024 ppm: 0%
  mortality at 0.098 ppm: 0%
  mortality at 0.39 ppm: 0%
  mortality at 1.56 ppm: 0%
  mortality at 6.25 ppm: 10%
  mortality at 25 ppm: 30%
  mortality at 100 ppm: 100%
24 h, Rep2
  mortality at 0.006 ppm: 0%
  mortality at 0.024 ppm: 0%
  mortality at 0.098 ppm: 0%
  mortality at 0.39 ppm: 0%
  mortality at 1.56 ppm: 0%
  mortality at 6.25 ppm: 10%
  mortality at 25 ppm: 20%
  mortality at 100 ppm: 100%
48 h, Rep1
  mortality at 0.006 ppm: 0%
  mortality at 0.024 ppm: 0%
  mortality at 0.098 ppm: 10%
  mortality at 0.39 ppm: 10%
  mortality at 1.56 ppm: 10%
  mortality at 6.25 ppm: 70%
  mortality at 25 ppm: 100%
  mortality at 100 ppm: 100%
48 h, Rep2
  mortality at 0.006 ppm: 0%
  mortality at 0.024 ppm: 0%
  mortality at 0.098 ppm: 10%
  mortality at 0.39 ppm: 0%
  mortality at 1.56 ppm: 30%
  mortality at 6.25 ppm: 30%
  mortality at 25 ppm: 100%
  mortality at 100 ppm: 100%
